Source: patent US11040053B2, “Compositions and methods for activating “stimulator of interferon gene”13 dependent signalling” (CHINOOK THERAPEUTICS, INC., priority 2015, dated 2021)
“Also recorded” adds a separate entry of the source.

Experiments:
[1] = system: MC38; test: MC38 colon carcinoma mouse model, intra-tumoral injection; format: in vivo, C57BL/6 female mice; details: FIG. 15B, IT 10 or 100 μg, three injections, vs HBSS
Protocol: To assess the ability of the fluorinated derivative compounds to promote anti-tumor immunity in diverse murine tumor models, tumor cells were implanted (in 100 μL PBS) subcutaneously on the lower back of 6-8 week old C57BL/6 female mice. Treatments began when tumors reached a volume of approximately 100 mm^3, on approximately day 14 post tumor implantation (see table below for tumor type, number of cells, and day of IT injection). The CDN compounds were administered by IT injection (10 or 100 μg in a total volume of 40 μL HBSS), and repeated every three days for a total of three injections. The compounds 3′3′-RR-(2′F-A)(2′F-A) and 3′3′-RR-(2′F-G)(2′F-A) and control mice given vehicle only (40 μL HBSS) were dosed. Tumors were measured twice weekly.

[2] = target: T1, wild type (WT) STING allele (Homo sapiens, UniProt Q86WV6, H232R); test: Cytokine transcript induction (qRT-PCR) in STING^WT/WT hPBMCs; format: cell-based; details: for relative normalized IFNβ expression, in words: FIGS. 7A-B, 2 hours stimulation, 100 μM to 0.1 μM
T1 construct: one donor was homozygous for the wild type (WT) STING allele; endogenous in cells; host or cells: human PBMCs, donor STING WT/WT
T1 sequence (Q86WV6 whole entry H232R): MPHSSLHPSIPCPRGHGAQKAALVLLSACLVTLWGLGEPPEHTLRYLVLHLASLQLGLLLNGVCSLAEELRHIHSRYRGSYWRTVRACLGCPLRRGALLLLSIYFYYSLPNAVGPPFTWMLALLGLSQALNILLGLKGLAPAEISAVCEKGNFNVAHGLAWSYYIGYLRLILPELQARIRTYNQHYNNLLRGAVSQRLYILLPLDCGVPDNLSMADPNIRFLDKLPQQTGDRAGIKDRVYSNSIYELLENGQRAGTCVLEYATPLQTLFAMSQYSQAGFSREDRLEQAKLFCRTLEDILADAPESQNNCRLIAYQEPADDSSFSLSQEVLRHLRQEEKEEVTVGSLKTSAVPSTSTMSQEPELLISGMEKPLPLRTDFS
Protocol: The induction of type I interferon was measured in human primary blood mononuclear cells (hPBMCs) to evaluate the potency of mono- or di-F-CDN compounds as described herein. hPBMCs from two unique donors were used: one donor was homozygous for the wild type (WT) STING allele (STING^WT/WT) and the other donor was homozygous for the so-called reference (REF) STING allele (STING^REF/REF). The STING genotype of these donors was determined by PCR amplification and sequencing: genomic DNA was isolated from 10^4 hPBMCs using Quick Extract DNA Extraction Solution (Epicentre) and was used to amplify regions of exon 3, 6, and 7 of the human STING gene.
Cells were incubated at 37° C., 5% CO2 with concentrations ranging from 100 μM to 0.1 μM of each CDN. After 2 hours (FIGS. 7 and 8) or 2 hours and 6 hours (FIGS. 9-13) stimulation, cells were harvested by centrifugation and washed once with phosphate-buffered saline. Cellular RNA was isolated using the Aurum Total RNA 96 Kit and cDNA was synthesized using the iScript cDNA Synthesis Kit. Target and reference gene expression was assessed by real-time qRT-PCR using PrimePCR probe assays and the CFX96 gene cycler (all reagents and equipment from BioRad). Normalized IFNβ expression was expressed relative to untreated cells. Target genes included type I interferon (IFNβ), Th1-associated cytokines (IFNγ, IL-12p40) and NF-kB dependent inflammatory cytokines (TNFα, IL-6). Reference genes included GUSB alone (FIGS. 7 and 8) or GUSB and HSP90AB1 (FIGS. 9-13).

[3] = target: T2, hSTING(WT) (Homo sapiens, UniProt Q86WV6, H232R); test: IFN-β luciferase reporter in HEK293T cells stably expressing hSTING(WT), digitonin permeabilization; details: FIGS. 5A-B, 0.1 μM to 100 μM and 6.25 μM CDN
Target sequence in this assay (Q86WV6 whole entry H232R): as above
Protocol: 24 hours later, cells were stimulated with native and synthetic CDN derivative molecules using digitonin permeabilization to ensure uniform uptake.
After 20 min, the stimulation mixtures were removed and 200 ul of DMEM media supplemented with 10% (vol/vol) fetal bovine serum, 1% L-Glutamine, and 1% Penicillin/Streptomycin was added. Cells were incubated an additional 6 hours (37° C., 5% CO2) and then cell lysates were prepared and reporter gene activity measured on a Spectramax M3 luminometer using the Dual-Glo Luciferase Assay System (Promega, catalog #E2920) as described by the manufacturer. IFNβ firefly luciferase reporter gene activity was normalized to TK renilla luciferase gene activity and plotted as fold induction over activity in unstimulated cells (mean+/−s.e.m.).

[4] = target: T3, hSTING HAQ allele (Homo sapiens, UniProt Q86WV6, G230A/H232R/R293Q/R71H); test: IRF-3 inducible secreted luciferase reporter in THP1-Dual cells without digitonin; format: cell-based; details: for activity relative to OH reference compound, in words: Table 5 comment, THP1 cells without digitonin
T3 construct: a human monocyte cell line containing the hSTING HAQ allele; host or cells: THP1-Dual cells
T3 sequence (Q86WV6 whole entry R71H/G230A/H232R/R293Q): as the sequence (Q86WV6 whole entry H232R) above, with R71H, G230A, R293Q counted along it
In short: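 THP1-Dual cells were exposed for 30 min, washed, and cultured overnight at 37 °C in fresh RPMI/10% FBS. Secreted luciferase in the supernatant was read with QUANTI-Luc as the type I interferon signal. EC50 was taken from a 10-point serial-dilution dose-response curve.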

[5] = target: T2, hSTING(WT); test: Differential scanning fluorometry (DSF) binding to purified hSTING WT; design: DNA encoding amino acids 140-379 (amino acid numbering corresponding to Swiss Prot Q86WV6); 6xHIS (N, cleaved yes); SUMO (N, cleaved yes); made in house; host or cells: Rosetta2 (DE3) E. coli; details: for Tm shift compared with non fluorine substituted compounds and 2′3′-(G)(A), in words: FIG. 3, hSTING (WT); for binding relative to OH reference compound, in words / binding relative to naturally produced 2′3′-(G)(A), in words: Table 4 comment, wild type hSTING
Target sequence in this assay (Q86WV6 140-379 H232R): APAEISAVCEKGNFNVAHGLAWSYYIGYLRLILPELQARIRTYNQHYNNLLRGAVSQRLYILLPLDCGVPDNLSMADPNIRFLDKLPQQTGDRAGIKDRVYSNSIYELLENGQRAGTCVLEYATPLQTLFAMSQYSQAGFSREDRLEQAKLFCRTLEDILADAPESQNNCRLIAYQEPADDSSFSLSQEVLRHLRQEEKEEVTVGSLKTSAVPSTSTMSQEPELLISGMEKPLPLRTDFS

[6] = target: T4, HAQ allele hSTING (Homo sapiens, UniProt Q86WV6, G230A/H232R/R293Q); test: Differential scanning fluorometry (DSF) binding to purified hSTING HAQ allele; details: for binding relative to OH reference compound, in words / binding relative to naturally produced 2′3′-(G)(A), in words: Table 4 comment, HAQ allele hSTING
T4 construct: DNA encoding amino acids 140-379 (amino acid numbering corresponding to Swiss Prot Q86WV6); 6xHIS (N, cleaved yes); SUMO (N, cleaved yes); made in house; host or cells: Rosetta2 (DE3) E. coli
T4 sequence (Q86WV6 140-379 G230A/H232R/R293Q limits assumed): as the sequence (Q86WV6 140-379 H232R) above, with G91A, R154Q counted along it

[7] = listed as 3′3′-RR-(2′F-A)(2′F-A)
[8] = DSF, 1 mg/ml STING AA140-379, ligand 1 mM

In the case of `Nc1nc2c(ncn2[C@@H]2O[C@@H]3CO[P@@](=O)(S)O[C@H]4[C@@H](F)[C@H](n5cnc6c(N)ncnc65)O[C@@H]4CO[P@@](=O)(S)O[C@H]3[C@H]2F)c(=O)[nH]1` (stereo in doubt) [Compound 14, 2-Amino-9-((2R,3R,3aR,5R,7aR,9R,10R,10aR,12R,14aR)-9-(6-amino-9H-purin-9-yl)-3,10-difluoro-5,12-dimercapto-5,12-dioxidooctahydro-2H,7H-difuro [3,2-d:3′,2′-j][1,3,7,9]tetraoxa[2,8]diphosphacyclododecin-2-yl)-1,9-dihydro-6H-purin-6-one], the “tumor volume, in words” value [1] is reported as “elicited complete tumor regression at all doses tested”, the “relative normalized IFNβ expression, in words” value [2] is reported as “most potent inducer of type I interferon in STING^WT/WT hPBMCs” and the “IFNβ level compared to the parent cGAMP compound” value ([2]; in the dose range tested) is reported as 10-100 fold. For the same compound, the “IFNβ luciferase reporter induction by hSTING(WT), in words” value ([3]; listed as 3′3′-RR-(2′F-G)(2′F-A)) was “strongly induced IFNβ reporter activity by hSTING(WT); also recorded: more potently induced IFNβ reporter activity by hSTING(WT) than the compound 3′3′-(G)(A)”, the “activity relative to OH reference compound, in words” value [4] was “improved activity” and the “Tm shift compared with non fluorine substituted compounds and 2′3′-(G)(A), in words” value [5] was “increased Tm shift”. For the same compound, the “binding relative to OH reference compound, in words” value [5] was “improved binding”, the “binding relative to naturally produced 2′3′-(G)(A), in words” value [5] was “improved binding” and the “binding relative to OH reference compound, in words” value [6] was “improved binding”. The “binding relative to naturally produced 2′3′-(G)(A), in words” value [6] was “improved binding”.

In the case of `Nc1ncnc2c1ncn2[C@@H]1O[C@@H]2CO[P@@](=O)(S)O[C@H]3[C@@H](F)[C@H](n4cnc5c(N)ncnc54)O[C@@H]3CO[P@@](=O)(S)O[C@H]2[C@H]1F` [Compound 6, (2R,3R,3aR,5R,7aR,9R,10R,10aR,12R,14aR)-2,9-bis(6-amino-9H-purin-9-yl)-3,10-difluoro-5,12-dimercaptooctahydro-2H,7H-difuro[3,2-d:3′,2′-j][1,3,7,9]tetraoxa[2,8]diphosphacyclododecine 5,12-dioxide], the “tumor volume, in words” value [1] is reported as “elicited complete tumor regression at all doses tested”, the “relative normalized IFNβ expression, in words” value [2, 7] is reported as “induced similar levels of IFNβ; also recorded: induced higher levels of IFNβ transcript when compared to the 3′3′-(A)(A) compound; also recorded: stimulated higher levels of IFNβ transcript by STING^WT/WT hPBMCs when compared to non-canonical 2′3′-(G)(A)” and the “IFNβ luciferase reporter induction by hSTING(WT), in words” value [3, 7] is reported as “induced higher levels of IFNβ reporter activity by hSTING(WT) than the non-fluorine substituted compounds; also recorded: stimulated higher levels of IFNβ reporter activity by hSTING(WT) when compared to the endogenous cellular ligand 2′3′-(G)(A)”. The “activity relative to OH reference compound, in words” value [4] was “improved activity”, the EC50 ([4]; without digitonin in THP1 cells (HAQ allele)) was 19 µM and the “hSTING Tm Shift WT” value [5, 8] was 19.3 °C. The “Tm shift compared with non fluorine substituted compounds and 2′3′-(G)(A), in words” value [5] was “increased Tm shift”, the “binding relative to OH reference compound, in words” value [5] was “improved binding” and the “binding relative to naturally produced 2′3′-(G)(A), in words” value [5] was “improved binding”. The “hSTING Tm Shift HAQ” value [6, 8] was 32.4 °C, the “binding relative to OH reference compound, in words” value [6] was “improved binding” and the “binding relative to naturally produced 2′3′-(G)(A), in words” value [6] was “improved binding”.
